Peptide text beside a SMILES is read from it.
Experiments:
[1] = Concentration of sweetener with the same degree of sweetness as a 6% aqueous sucrose solution (Example 14, Table 20); type: in vivo
Procedure: Aqueous solutions containing various sweeteners (stevia extract, siraitia grosvenori extract, licorice extract, thaumatin, aspartame, and neotame) in the concentrations shown in Table 20 were prepared.

panelists [2] = assay: Improvement in sweetness quality of sweeteners by additives, panel score (Example 14); type: in vivo; settings: for improvement in sweetness quality, average score of twelve panelists: vs sweetener alone, 2 improvement, 1 slight improvement, 0 no improvement; for improvement in the sweetness quality of stevia extract: additive added to 0.03% stevia extract aqueous solution
Procedure: Aqueous solutions containing various sweeteners (stevia extract, siraitia grosvenori extract, licorice extract, thaumatin, aspartame, and neotame) in the concentrations shown in Table 20 were prepared. […] The evaluation was conducted by scoring the improvement in sweetness quality based on the criteria described below in comparison with an aqueous solution containing only each of the sweeteners (Control).

panelists [3] = assay: as above; type: in vivo; settings: additive added to 0.03% stevia extract aqueous solution
[4] = general statement in description; cited from earlier work
[5] = Concentration having the same degree of sweetness as a 5% aqueous sucrose solution (Example 1, Table 1); type: in vivo
Description: The degree of sweetness of rebaudioside A and that of mogroside V depends on the pH. […] Citric acid and trisodium citrate were used to prepare pH3 and pH4.5 solutions, and sodium bicarbonate was used to prepare pH7 solutions.

[6] = additive Gentiooligosaccharide (Gentose#45) 0.4%
[7] = additive Highly branched cyclic dextrin (Cluster Dextrin) 0.07%
[8] = additive Magnesium chloride 0.05%
[9] = additive Magnesium sulfate 0.05%

| Compound | Concentration (%) exhibiting the same degree of sweetness as a 6% aqueous sucrose solution [1] [%] | improvement in sweetness quality, average score of twelve panelists (panelists [2]; [6]) [points] | improvement in sweetness quality, average score of twelve panelists (panelists [2]; [7]) [points] | improvement in sweetness quality, average score of twelve panelists (panelists [2]; [8]) [points] | improvement in sweetness quality, average score of twelve panelists (panelists [2]; [9]) [points] | improvement in sweetness quality, average score of twelve panelists (panelists [2]; additive Naringin 0.0025%) [points] | remaining aftertaste of sweetness in stevia extract (panelists [3]) | richness (body) of stevia extract (panelists [3]) | other results |
| --- | --- | --- | --- | --- | --- | --- | --- | --- | --- |
| COC(=O)[C@H](Cc1ccccc1)NC(=O)[C@@H](N)CC(=O)O [Aspartame, aspartame] (H-Asp-Phe-OMe) | 0.038 | 0.3 | 0.3 | 0.8 | 0.7 | 0.3 | – | – | – |
| [Cl-].[Cl-].[Mg+2] [Magnesium chloride, magnesium chloride] | – | – | – | – | – | – | reduced | increased | improvement in the sweetness quality of stevia extract (panelists [2]): remarkably excellent improvements |
| O=S(=O)([O-])[O-].[Mg+2] [Magnesium sulfate, magnesium sulfate] | – | – | – | – | – | – | reduced | increased | improvement in the sweetness quality of stevia extract (panelists [2]): remarkably excellent improvements |
| C[C@H](CC[C@@H](O[C@@H]1O[C@H](CO[C@@H]2O[C@H](CO)[C@@H](O)[C@H](O)[C@H]2O)[C@@H](O)[C@H](O)[C@H]1O[C@@H]1O[C@H](CO)[C@@H](O)[C@H](O)[C@H]1O)C(C)(C)O)[C@H]1CC[C@@]2(C)[C@@H]3CC=C4[C@@H](CC[C@H](O[C@@H]5O[C@H](CO[C@@H]6O[C@H](CO)[C@@H](O)[C@H](O)[C@H]6O)[C@@H](O)[C@H](O)[C@H]5O)C4(C)C)[C@]3(C)[C@H](O)C[C@]12C [Mogroside V, mogroside V] | – | – | – | – | – | – | – | – | degree of sweetness (sweetness intensity) [4]: about 300 times that of sucrose; concentration having the same degree of sweetness as a 5% aqueous sugar solution ([5]; pH 3, substance singly): 0.03%; concentration having the same degree of sweetness as a 5% aqueous sugar solution ([5]; pH 4.5, substance singly): 0.03%; concentration having the same degree of sweetness as a 5% aqueous sugar solution ([5]; pH 7, substance singly): 0.0255% |
| C[C@@H]1O[C@@H](O[C@H]2[C@H](Oc3cc(O)c4c(c3)O[C@H](c3ccc(O)cc3)CC4=O)O[C@H](CO)[C@@H](O)[C@@H]2O)[C@H](O)[C@H](O)[C@H]1O [Naringin, naringin] | – | – | – | – | – | – | reduced | increased | – |
| COC(=O)[C@H](Cc1ccccc1)NC(=O)[C@H](CC(=O)O)NCCC(C)(C)C [Neotame, neotame] | 0.0008 | 0.8 | 0.8 | 0.8 | 0.8 | 1.0 | – | – | – |
| C=C1C[C@@]23CC[C@H]4[C@@](C)(CCC[C@@]4(C)C(=O)O[C@@H]4O[C@H](CO)[C@@H](O)[C@H](O)[C@H]4O)[C@@H]2CC[C@]1(O[C@@H]1O[C@H](CO)[C@@H](O)[C@H](O[C@@H]2O[C@H](CO)[C@@H](O)[C@H](O)[C@H]2O)[C@H]1O[C@@H]1O[C@H](CO)[C@@H](O)[C@H](O)[C@H]1O)C3 [Rebaudioside A, rebaudioside A] | – | – | – | – | – | – | – | – | concentration having the same degree of sweetness as a 5% aqueous sugar solution ([5]; pH 3, substance singly): 0.0228%; concentration having the same degree of sweetness as a 5% aqueous sugar solution ([5]; pH 4.5, substance singly): 0.0219%; concentration having the same degree of sweetness as a 5% aqueous sugar solution ([5]; pH 7, substance singly): 0.02% |
| thaumatin | 0.0024 | 0.8 | 0.5 | 1.0 | 1.3 | 0.7 | – | – | – |
